According to patent US10086108B2, “Hydrogels and use thereof in anastomosis procedures” (The United States of America, as represented by the …, priority 2015, dated 2018):

How the values were obtained:
Format in all cases: physicochemical
[1] = Oscillatory rheology of peptide hydrogels (formation, shear-thin/recovery, UV photodisruption); settings: for Storage modulus (G′) of formed gel, regime I time sweep: 1% w/v peptide, pH 7.4, 6 rad/s, 0.2% strain, APC1 after 30 minutes; for Onset of gelation after triggering: regime I
Source text: Oscillatory rheology was employed to study the rheological behavior of each gel under experimental conditions that mimic its use during the anastomosis procedure. Here, the storage modulus (G′), a measure of the gels' mechanical rigidity, is monitored in the rheometer under environmental conditions that mimic: (1) the initial (sol-gel) formation of the hydrogel in the syringe; (2) shear thinning of the material as it passes through the syringe needle during injection with subsequent hydrogel recovery in the vessel lumen; and (3) the disruption of the gel network (gel-sol) by UV photolysis after suturing. Monitoring gel behavior in a rheometer, although not exactly capturing the gel's response during the actual anastomosis procedure, allows quantitative and reproducible measurement of gel mechanical properties under highly controlled conditions. […] In regime I, the rate of hydrogel formation (sol-gel) is assessed in a time-sweep experiment that monitors the evolution of G′ after peptide folding and assembly is triggered for a 1% w/v solution of peptide. […] After completion of the initial time sweep, 1000% strain is applied to the material for 30 seconds in regime II to mimic syringe delivery of the gel. This application of strain results in an immediate decrease in G′ indicative of shear thinning that results in a viscous gel capable of flow. After the 30 seconds, the applied strain is decreased to 0.2% and the material is allowed to recover. […] Lastly, using an optically clear parallel plate in the rheometer, the recovered hydrogel is subjected to irradiation by UV light (365 nm) for the first 10 minutes of regime III, where the effect of photolysis on the storage modulus is monitored over time. […] Importantly, irradiation by UV rapidly disrupts the gel network affording a viscous material, which should be capable of dissolution when exposed to the shear of blood flow. Independent frequency- and strain-sweep measurements were also performed as shown in FIGS. 14A-14B and FIGS. 15A-15B.
Application of 1000% strain in the first 30 sec. of regime II quickly thins the APC2 gel. However, the resulting viscous material is unable to self-heal effectively and recovers only about 5% of its original mechanical rigidity. Finally, irradiation in regime III disrupts the weakly recovered gel. Although APC2 is initially able to form a very rigid gel, its inability to recover after being shear thinned precludes it use in the anastomosis procedure. […] Here, incorporation of the cage near the strand termini of the hairpin hampers the ability of the network to recover. Based on this rheological assessment, the APC1 gel was chosen for further study.
Oscillatory Rheology. Rheology experiments were performed on an AR-G2 Rheometer (TA Instruments, DE) equipped with a 25 mm stainless steel parallel plate geometry using a 0.5 mm gap height. A 2 wt % peptide solution was prepared by dissolving lyophilized peptide in water and chilling on ice. An equal volume of chilled 100 mM BTP, 300 mM NaCl, pH 7.4 buffer was added and gently mixed, then immediately transferred to the rheometer plate equilibrated at 5° C. In separate experiments, APC1 gels were prepared in syringe, or as a preformed slab, and incubated for 1 hour at 37° C. Gels were then shear-thinned delivered, or transferred as an intact gel slab, to the rheometer plate, respectively. A temperature ramp from 5° C. to the desired temperature (25° C. or 37° C.) over 100 seconds was performed, followed by a 60 minute dynamic time sweep using an angular frequency of 6 rads and application of 0.2% strain to monitor the storage (G′) and loss (G″) modulus of the hydrogel. The resulting hydrogel was further evaluated by performing a frequency sweep from 0.1 to 100 rads and a strain sweep at 6 rads from 0.1% to 1000% strain. Oil was placed around the sample and on the plate to prevent evaporation. […]

[2] = Circular dichroism spectroscopy of peptide folding and assembly; settings: for Folding state by CD under gelation conditions / Folding state by CD in water: 1% w/v; for Folding state by CD under gelation conditions: pH 7.4, 150 mM NaCl, 25 or 37° C.; for Folding state by CD in water: 5° C.; for Temperature needed to induce folding and assembly: pH 7.4 buffer with NaCl, ellipticity at 216 nm vs temperature
Procedure: The ability of APC1 and APC2 to fold and associate into β-sheet rich assemblies was monitored using circular dichroism (CD) spectroscopy. In water at 5° C., the CD spectra of 1% w/v solutions of APC1 and APC2 indicate that the peptides are unfolded under these conditions (FIG. 4A). […] The NaCl screens the lysine point charges and increasing the temperature drives the hydrophobic effect, both of which favor folding and assembly. The exact temperatures needed to induce folding and assembly of each peptide were determined by monitoring the mean ellipticity at 216 nm as a function of temperature as shown in FIG. 13. In all the CD experiments, self-supporting hydrogels of both peptides (pH 7.4, 150 mM NaCl) form directly in the cuvette after folding is triggered. The same procedure can be used to form the gels directly in a syringe. […] Also evident in the spectra are absorptions due to the indoline cage, which occur in the near UV-CD (240-380 nm). […] However, when the peptides fold and assemble, the indoline ring is placed into a chiral environment, such as that provided by the fibril's hydrophobic interior. […] Importantly, it also supports the assertion that if the glutamate's negative point-charge were to be unmasked when the peptides are in the folded and assembled fibrillar state, that this event should be disruptive.
Circular Dichroism (CD). CD spectra of peptide hydrogels were collected on an AVIV 410 spectropolarimeter (AVIV Biomedical Inc., NJ). For wavelength spectra of APC1 and APC2 in water, a 1 wt % solution of peptide was prepared by dissolving lyophilized peptide in water at 5° C. The peptide solution was transferred to a 0.1 mm path length cylindrical cell and placed in the spectrometer sample holder equilibrated at 5° C. For temperature-dependent folding of 1 wt % hydrogels, a 2 wt % peptide solution was first prepared by dissolving lyophilized peptide in water and chilling on ice. Then, an equal volume of chilled 100 mM BTP, 300 mM NaCl, pH 7.4 buffer was added, gently mixed, and quickly transferred to a 0.1 mm path length cylindrical cell and placed in the spectrometer sample holder equilibrated at 5° C. The CD spectra were collected from 200-260 nm or 200-400 nm as a function of temperature at 5 degree increments from 5-80° C. with 10 min equilibration at each temperature. For UV photolysis of 1% w/v hydrogels, the solution was prepared in a manner identical to the folding studies and placed in the spectrometer at 25° C. or 37° C. for 30 minutes. The hydrogel within the cylindrical cell was irradiated for the specified time interval, followed by recording the mean residue ellipticity at 216 nm. For APC1, irradiation and spectra were obtained at 10 second intervals for the first 60 seconds, then at 1 minute intervals for a total of 5 minutes. For APC2, irradiation and spectra were obtained at 1 minute intervals for a total of 15 minutes. At the final time point, a wavelength spectrum from 200-400 nm of each peptide was obtained. Peptide concentration was determined by UV spectroscopy using ε220nm=16448 M^−1cm^−1 for cAPC1 and cAPC2 and ε220nm=31144 M^−1cm^−1 for APC1 and APC2. The mean residue ellipticity [θ] was calculated from [θ]=(θobs/10 lc)/r, where θobs is the measured ellipticity in degrees, l is the path length in centimeters, c is the concentration in molar, and r is the number of residues in the sequence. Each CD spectra shown is representative of three individual experiments, where each data point represents the average of 30 measurements, with a variance in ellipticity of 0.2 millidegrees at each wavelength.

[3] = UV photolysis of the indoline cage followed by absorbance at 248 nm; settings: absorbance at 248 nm during irradiation
Source text: FIGS. 6A and 6B test that assertion by following the fate of both the 4-methoxy-7-nitroindoline (MNI) group as well as the caged peptide during photolysis. In FIG. 6A, the absorbance of APC1 at 248 nm is followed as a function of time during irradiation. Absorbance at this wavelength is mainly due to the intact indoline cage. […] In FIG. 6B, photolysis of the caged peptide is followed by RP-HPLC. […] Mass spectroscopy was used to confirm the identity of both species.

Storage modulus (G′) of formed gel, regime I time sweep [1]	Onset of gelation after triggering ([1]; 1% w/v)	Storage modulus (G′) after UV irradiation, regime III ([1]; 365 nm, 10 minutes, recovered 1% w/v gel) [Pa]	Storage modulus (G′) recovered after shear thinning ([1]; 1000% strain for 30 seconds, then 0.2% strain, 1% w/v) [Pa]	Folding state by CD under gelation conditions [2]	Folding state by CD in water [2]	Temperature needed to induce folding and assembly [2] [°C]	Irradiation time to almost complete photolysis of the indoline cage [3] [s]	Substance
~2,500 Pa	within the first few minutes	~180	1900	β-sheet secondary structure	unfolded	25	90	Ac-VKVKVKGKV^DPPTKZEVKVKV-NH2 [APC1]
20,000 Pa	significant lag phase			β-sheet secondary structure	unfolded	37		VKVKGKVKV^DPPTKVEZKVKV [APC2]
